Assay results published in ChEMBL document CHEMBL4715689, “Novel PTP1B inhibitors identified by DNA display of fragment pairs” (Bioorg Med Chem Lett, 2016).
pKd, pKi: −log10 of the molar value. Active and inactive are the calls of the source. No cut-off for these calls is given here.

Assays:
[1] = biological target: T1, Tyrosine-protein phosphatase non-receptor type 2 (Homo sapiens, UniProt P17706); test: Inhibition of recombinant human TCPTP (1 to 317 residues) expressed in Escherichia coli using DifMup as substrate preincubated for 30 mins followed by substrate addition and measured immediately
T1 sequence (P17706 whole entry): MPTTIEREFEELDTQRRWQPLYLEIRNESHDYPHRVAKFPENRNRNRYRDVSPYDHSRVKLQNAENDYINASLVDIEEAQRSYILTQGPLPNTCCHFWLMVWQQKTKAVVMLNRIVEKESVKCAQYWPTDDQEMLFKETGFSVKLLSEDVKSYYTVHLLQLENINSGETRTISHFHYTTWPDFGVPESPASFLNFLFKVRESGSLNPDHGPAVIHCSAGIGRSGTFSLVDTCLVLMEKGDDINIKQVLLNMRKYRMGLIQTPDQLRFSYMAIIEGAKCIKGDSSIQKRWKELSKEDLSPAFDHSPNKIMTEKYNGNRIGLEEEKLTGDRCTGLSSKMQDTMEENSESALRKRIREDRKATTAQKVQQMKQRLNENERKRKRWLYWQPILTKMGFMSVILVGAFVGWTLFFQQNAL

BT-474 = test: Growth inhibition of human BT474 cells assessed as reduction in cell viability after 48 hrs by MTT assay; type: functional
[2] = biological target: T2, Tyrosine-protein phosphatase non-receptor type 1 (Homo sapiens, UniProt P18031)
T2 sequence (P18031 whole entry): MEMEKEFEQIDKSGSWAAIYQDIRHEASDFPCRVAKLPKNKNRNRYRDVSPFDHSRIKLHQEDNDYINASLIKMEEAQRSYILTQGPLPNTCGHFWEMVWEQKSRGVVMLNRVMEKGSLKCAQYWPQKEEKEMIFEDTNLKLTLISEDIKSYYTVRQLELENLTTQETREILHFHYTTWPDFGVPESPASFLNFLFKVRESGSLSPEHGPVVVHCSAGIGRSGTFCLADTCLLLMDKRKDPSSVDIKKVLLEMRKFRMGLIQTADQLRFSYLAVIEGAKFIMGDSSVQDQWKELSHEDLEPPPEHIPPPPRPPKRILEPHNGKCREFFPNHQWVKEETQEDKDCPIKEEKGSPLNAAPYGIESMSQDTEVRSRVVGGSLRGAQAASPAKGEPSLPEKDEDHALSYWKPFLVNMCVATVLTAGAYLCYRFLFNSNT
Description: Inhibition of N-terminal GST-tagged recombinant human PTP1B (1 to 321 residues) expressed in Escherichia coli using DifMup as substrate preincubated for 30 mins followed by substrate addition and measured immediately

[3] = biological target: T2, Tyrosine-protein phosphatase non-receptor type 1; remark: listed apart in the source
Description: Binding affinity to N-terminal GST-tagged recombinant human PTP1B (1 to 321 residues) expressed in Escherichia coli assessed as dissociation constant and measured for 120 sec by biolayer interferometry

Compound	pKi [1]	pKi [2]	pKd [3]	GI50 (BT-474) [nM]	Activity (BT-474)
CC(C)C(NC1=NS(=O)(=O)c2ccccc21)C(=O)NCC(NC(=O)c1n[nH]c2ccc([N+](=O)[O-])cc12)C(=O)NC(CCCCNC(=O)CCCC[C@@H]1SCC2NC(=O)NC21)C(N)=O (some centres undefined)	< 4.70	6.60	7.30		inactive
CCCCC(NC1=NS(=O)(=O)c2ccccc21)C(=O)NCC(NC(=O)COCCOCCNC(=O)C(C1CC1)n1cc(-c2cccc(OC)c2)nn1)C(N)=O (centres undefined)	5.15	5.54	6.66		
CC(C)C(NC1=NS(=O)(=O)c2ccccc21)C(=O)NCC(NC(=O)c1n[nH]c2ccc([N+](=O)[O-])cc12)C(N)=O (centres undefined)	< 4.70				inactive
CCC(C)C(NC1=NS(=O)(=O)c2ccccc21)C(=O)NC[C@@H](NC(=O)C1CCCC(NC(=O)C(C2CC2)n2cc(CC3CCCCC3)nn2)C1)C(=O)NC(CCCCNC(=O)CCCC[C@@H]1SCC2NC(=O)NC21)C(N)=O (some centres undefined)	6.10	5.47	6.62		
NC(=O)C(CNC(=O)CCCCCNC1=NS(=O)(=O)c2ccccc21)NC(=O)Cc1ccc(CNC(=O)[C@H](C2CC2)n2cc(CC3CCCCC3)nn2)cc1 (some centres undefined)	5.52	5.17	6.96		
CCCCC(NC1=NS(=O)(=O)c2ccccc21)C(=O)NCC(NC(=O)c1ccccc1NC(=O)c1n[nH]c2ccc([N+](=O)[O-])cc12)C(=O)NC(CCCCNC(=O)CCCC[C@@H]1SCC2NC(=O)NC21)C(N)=O (some centres undefined)	< 4.00	5.92	6.57		inactive
CCCCC(NC1=NS(=O)(=O)c2ccccc21)C(=O)NCC(NC(=O)COCCOCCNC(=O)C(C1CC1)n1cc(-c2cccc(OC)c2)nn1)C(=O)NC(CCCCNC(=O)CCCC[C@@H]1SCC2NC(=O)NC21)C(N)=O (some centres undefined)	5.15	5.54	6.66		
CCCCC(NC1=NS(=O)(=O)c2ccccc21)C(=O)NC[C@@H](NC(=O)C1CCCC(NC(=O)[C@H](CC(C)(C)C)n2cc(CC3CCCCC3)nn2)C1)C(N)=O (some centres undefined)	4.91	5.51	7.05		
CCC(C)C(NC1=NS(=O)(=O)c2ccccc21)C(=O)NC[C@@H](NC(=O)CC1(NC(=O)[C@H](CC(C)(C)C)n2cc(CC3CCCCC3)nn2)CCCCC1)C(=O)NC(CCCCNC(=O)CCCC[C@@H]1SCC2NC(=O)NC21)C(N)=O (some centres undefined)	< 4.00	5.77	6.54	900	
CCCCC(NC1=NS(=O)(=O)c2ccccc21)C(=O)NCC(NC(=O)CC1(NC(=O)C(C2CC2)n2cc(CC3CCCCC3)nn2)CCCCC1)C(=O)NC(CCCCNC(=O)CCCC[C@@H]1SCC2NC(=O)NC21)C(N)=O (some centres undefined)	5.57	4.77	6.92		
NC(=O)C(CCCCNC(=O)CCCC[C@@H]1SCC2NC(=O)NC21)NC(=O)C(CNC(=O)CCCCCNC1=NS(=O)(=O)c2ccccc21)NC(=O)Cc1ccc(CNC(=O)[C@H](C2CC2)n2cc(CC3CCCCC3)nn2)cc1 (some centres undefined)	5.52	5.17	6.96		
CCC(C)C(NC1=NS(=O)(=O)c2ccccc21)C(=O)NC[C@@H](NC(=O)C1CCCC(NC(=O)C(C2CC2)n2cc(CC3CCCCC3)nn2)C1)C(N)=O (some centres undefined)	6.10	5.47	6.62		

Now from value to compound, other results behind:

pKi [1]	pKi [2]	pKd [3]	GI50 (BT-474) [nM]	Compound	Activity (BT-474)
< 4.00	5.92	6.57		CCCCC(NC1=NS(=O)(=O)c2ccccc21)C(=O)NCC(NC(=O)c1ccccc1NC(=O)c1n[nH]c2ccc([N+](=O)[O-])cc12)C(N)=O (centres undefined)	inactive
< 4.00	5.77	6.54	900	CCC(C)C(NC1=NS(=O)(=O)c2ccccc21)C(=O)NC[C@@H](NC(=O)CC1(NC(=O)[C@H](CC(C)(C)C)n2cc(CC3CCCCC3)nn2)CCCCC1)C(N)=O (some centres undefined)	
5.12	5.66	6.68		CCCCC(NC1=NS(=O)(=O)c2ccccc21)C(=O)NC[C@@H](NC(=O)C1(NC(=O)[C@H](CC(C)(C)C)n2cc(CC3CCCCC3)nn2)CC1)C(N)=O (some centres undefined)	
5.21	5.46	7.00		CC(C)C(NC1=NS(=O)(=O)c2ccccc21)C(=O)NC[C@@H](NC(=O)CC1(NC(=O)[C@H](CC(C)(C)C)n2cc(CC3CCCCC3)nn2)CCCCC1)C(=O)NC(CCCCNC(=O)CCCC[C@@H]1SCC2NC(=O)NC21)C(N)=O (some centres undefined)	
5.21	5.46	7.00		CC(C)C(NC1=NS(=O)(=O)c2ccccc21)C(=O)NC[C@@H](NC(=O)CC1(NC(=O)[C@H](CC(C)(C)C)n2cc(CC3CCCCC3)nn2)CCCCC1)C(N)=O (some centres undefined)	
5.12	5.66	6.68		CCCCC(NC1=NS(=O)(=O)c2ccccc21)C(=O)NC[C@@H](NC(=O)C1(NC(=O)[C@H](CC(C)(C)C)n2cc(CC3CCCCC3)nn2)CC1)C(=O)NC(CCCCNC(=O)CCCC[C@@H]1SCC2NC(=O)NC21)C(N)=O (some centres undefined)	
4.91	5.51	7.05		CCCCC(NC1=NS(=O)(=O)c2ccccc21)C(=O)NC[C@@H](NC(=O)C1CCCC(NC(=O)[C@H](CC(C)(C)C)n2cc(CC3CCCCC3)nn2)C1)C(=O)NC(CCCCNC(=O)CCCC[C@@H]1SCC2NC(=O)NC21)C(N)=O (some centres undefined)	
5.57	4.77	6.92		CCCCC(NC1=NS(=O)(=O)c2ccccc21)C(=O)NCC(NC(=O)CC1(NC(=O)C(C2CC2)n2cc(CC3CCCCC3)nn2)CCCCC1)C(N)=O (centres undefined)	
